Measurements as given in patent publication US10590383B2, “Methods for differentiating pluripotent cells” (FUJIFILM Cellular Dynamics, Inc., priority 2016, dated 2020).
Entries after “also recorded” stand apart in the source; their conditions may differ.

Tests used:
[1] = tested on: human induced pluripotent stem cell (iPS) cell lines; experiment: mDA progenitor patterning on process day 17 (FoxA2 by flow cytometry, FoxA2/Lmx1 co-expression by ICC); format: cell-based; details: for percentage of mDA progenitors induced (FoxA2 / FoxA2+Lmx1 cells) / use in mono-SMAD inhibition methods to produce midbrain dopaminergic neurons from iPS cells: single SMAD inhibitor; for percentage of mDA progenitors induced (FoxA2 / FoxA2+Lmx1 cells): alternate patterning conditions, multiple iPSC lines, process day 17
Experimental: Midbrain neuronal differentiation of human induced pluripotent stem cell (iPS) cell lines expanded on VTN-TN in Essential 8 medium was performed with small molecule and growth factor induction using a variety of differentiation media compositions and schedules as detailed in Tables 1-5. Generally, the iPS cells were cultured in D1 DA Neuron Induction Medium on Day 1, D2 Neuron Induction Medium on Day 2, and D3-D4 DA Induction Medium on Day 3 and 4. On Day 5, the cells were dissociated with TrypLE for 15 minutes and collected in DA Quench Medium before transferring the cells to a spinner flask suspension culture to form aggregates in D5 DA Neuron Aggregate Formation Medium.
On Day 6, the aggregates were settled, about 66% of the medium was removed, and the aggregates were fed DA Neuron Induction Medium. On Days 7-16, the aggregates were fed daily with DA Neuron Aggregate Maintenance Medium, and the medium was changed on Day 11 through 16. On Day 17, aggregates were dissociated to a single-cell suspension with TrypLE and plated onto Matrigel in D17 DA Neuron Aggregate Plating Medium. On Days 18, 20, 22 the medium was replaced with DopaNeuron Maturation Medium. On Day 24, the cells were dissociated using Accutase and plated in DA Neuron Maturation Plating Medium. The next day, the medium was replaced with DopaNeuron Maturation Medium.
The iCell DopaNeurons process was optimized with most progenitor patterning factors added starting on day 1. This includes factors for neuralization (dual-SMADi), sonic hedgehog signaling (Shh, PMN), and Wnt signaling (CHIR). […] A large number of optimization experiments were carried out across several iPSC lines to define conditions for efficient mono-SMADi mDA progenitor patterning, varying the timing and dose of all patterning factors. […] In the alternate (ALT) method, the SHH/Purmophamine addition was moved from Day 1 to Day 2. The changes utilized in this improvement included: (i) staggering the addition of the Wnt agonist (CHIR) to day 2 or day 3, (ii) re-optimizing the CHIR concentration, as this is dependent on the time it is first added, and (iii) moving the window where PD03 is added, as the optimal window depends on when CHIR is added. The end result was a narrow set of conditions that led to highly-efficient mDA progenitor formation in multiple iPS cell lines. Approximately half of the iPSC lines tested were able to generate mDA progenitors using mono-SMADi conditions.
FoxA2/Lmx1 coexpression is the most accurate marker for mDA progenitor cells. The use of alternate patterning conditions allows for efficient mDA progenitor patterning in the context of mono-SMAD inhibition (“Mono/Alternate”), whereas the standard patterning conditions have poor mDA progenitor patterning in the context of mono-SMAD inhibition (“Mono/Standard”). Control differentiations using dual-SMADi and standard patterning conditions (“Dual/Standard”) are shown for comparison.
Once an alternate patterning condition was identified that allowed for successful differentiation using mono-SMAD inhibition (Condition 1, i.e., Table 4: Alternate, LDN at 200 nM), the method was refined using a matrix of conditions, including the concentration of CHIR, and the treatment windows for Shh signaling, Wnt signaling, and MEK inhibition. […] Tyrosine hydroxylase (TH) expression is low in immature mDA neurons.
Different inhibitors were tested for function in mono-SMADi methods, as follows. The iCell DopaNeurons process induces neuralization using LDN-193189, an inhibitor of BMP signaling (inhibits ALK 1/2/3/6, blocks SMAD 1/5/8), and SB-431542, an inhibitor of TGF-b signaling (inhibits ALK 4/5/7, blocks SMAD 2/3). Together, this is referred to as “dual SMAD inhibition”, or “dual SMADi.” To define optimal conditions for neuralization using only a single SMAD inhibitor in the mDA process, various analogs of LDN-193189 and SB-431542 were screened across multiple iPS cell lines using the alternate patterning conditions described above. […]

[2] = tested on: dividing cells / post-mitotic mDA neurons; experiment: In-process purification of mDA neurons with mitomycin C (neuron purity MAP2+/nestin-, day 37); format: cell-based, human; details: chemo drug selection, no selection gave 44%
Description: In-Process Purification of mDA Neurons: Even with efficient mDA progenitor patterning, there is a population of cells that continues to proliferate even after the maturing mDA neurons leave the cell cycle (approximately day 25). […] Intermediate doses given for intermediate times could also be used to achieve a similar effect.

iPSC-derived mDA neurons = experiment: Marker characterization at process completion, day 37 (MAP2/nestin, FoxA2, TH); format: cell-based, human; details: 2 μM LDN versus 200 nM, Condition 7, iPSC line K
Description: On Day 31, the cells were dissociated with Accutase and re-plated onto poly-L-ornithine (PLO)/Laminin-coated flasks in DA Neuron Maturation Plating Medium. Next, on Days 32, 34, and 36, the cells were fed DopaNeuron Maturation Medium. On Day 37 or 38, the cells were again dissociated with Accutase and subjected to analysis or cryopreserved for later use.
Three iPSC lines (C, K, and H) are shown as examples of successful differentiations taken to process completion (day 37) (FIG. 5). The iPSC lines C, K, and H are iPSC lines (21526.101, 21534.101, and 21531.101, respectively). Data was obtained using the approach in Table 4 for Alternate LDN and Table 1 for Standard Dual control. Differentiation of the H line using dual-SMADi and the optimized standard patterning is shown for comparison. In each case, a high level of neuron purity was observed (>90% MAP2+/nestin−), and essentially all neurons co-express FoxA2. The inventors have observed that the vast majority of MAP2+/FoxA2+ cells at this stage also express Lmx1, and are therefore mDA neurons. The DA neuron phenotype was confirmed by the expression of tyrosine hydroxylase (TH) in the majority of neurons, a marker of more mature DA neurons. […]

[3] = biological target: TGF-β type 1 (ALK4/5/7) receptor signaling; details: read-out: IC50 for inhibition of TGF-β type 1 (ALK4/5/7) receptor signaling; cited from earlier work

Row | Compound | percentage of mDA progenitors induced (FoxA2 / FoxA2+Lmx1 cells) [1] | use in mono-SMAD inhibition methods to produce midbrain dopaminergic neurons from iPS cells [1] | also measured
1 | Cc1cccc(-c2nn(C(=S)Nc3ccccc3)cc2-c2ccnc3ccccc23)n1 [A-83-01] | did not outperform LDN | – | –
2 | CO[C@@]12[C@H](COC(N)=O)C3=C(C(=O)C(C)=C(N)C3=O)N1C[C@@H]1N[C@@H]12 [MMC, mitomycin C] | – | – | final neuron purity (MAP2+/nestin−) [2]: > 90%
3 | c1ccc(-c2[nH]ncc2-c2ccnc3ccccc23)nc1 [LY364947] | did not outperform LDN | – | –
4 | CC(C)Oc1ccc(-c2cnc3c(-c4ccnc5ccccc45)cnn3c2)cc1 [DMH-1] | – | successfully used | –
5 | c1ccc2c(-c3cnn4cc(-c5ccc(N6CCNCC6)cc5)cnc34)ccnc2c1 [LDN-193189] | best overall at inducing the highest percentage of mDA progenitors; also recorded: most efficient at neutralizing mDA progenitors across multiple iPSC lines | successfully used | FoxA2 and Lmx1 expression levels in day 17 progenitors ([1]; 2 μM LDN versus 200 nM, Condition 7, iPSC line K, n=5 experiments): higher FoxA2 and Lmx1 expression levels; percentage of floor plate-derived neurons (FoxA2+) on process day 37 (iPSC-derived mDA neurons): higher percentage of floor plate-derived neurons (FoxA2+); IC50 [3]: > 500 nM
